Data set [1] is described as follows: Stability by UV/vis spectroscopy in fully supplemented phenol-red free media. In kind it is physicochemical. Particulars: 37 °C, monitored over 96 h. How it is done: d6/D2O mixture (70/30) spiked with 0.1 M NaCl for 96 hours, before HR -MS was conducted; these are […]
Stability Assay by NMR Spectroscopy
Compounds 1-4 (3-4 mg) were dissolved in a 500 µL mixture of 90% DMSO -d6 and 10% D2O. 1H and 31P NMR spectra were obtained by a Bruker Avance 500 MHz at room temperature and multiple time points over 4 days. A solution of sodium chloride in D2O (26.3 g/L, 143 µL) was added to the same samples (final concentration 0.1 M NaCl in 70 % DMSO-d6 and 30% D2O) to mimic the chloride concentration in blood. 1H and 31P NMR spectra were obtained by a Bruker Avance 500 MHz at room temperature and multiple time points over 4 days.
Stability Assays by UV/vis Spectroscopy
The compounds were dissolved in DMSO and added to fully supplemented DMEM phenol-red free media (see Cell Viability Assays section for all additives) under sterile conditions to obtain a final concentration of 60 µg/mL. UV/vis spectra were obtained every 30 min for 96 h at 37 °C.
(§1) All cytotoxicity assays were conducted using human cell lines: breast adenocarcinomas (MDA-MB-231 and MCF-7), pancreatic carcinoma (MIA PaCa-2) and non-cancerous epithelial retinal (ARPE-19) cell lines. All cell lines were routinely maintained as monolayer cultures in appropriate complete media:
MCF-7, MIA PaCa-2 and ARPE-19 in high glucose DMEM and MDA-MB-231 in RPMI-1640, and both media were supplemented with 10% FBS, 1 mM sodium pyruvate, 2 mM L-glutamine, and 1% pen-strep. All cells were initially grown in T-25 or T-75 flasks at 37 °C and 5% CO2. […] All solutions were then aspirated, DMSO (150 µL) added to each well, gently mixed, and the absorbance was measured at 540 nm using a ClarioStar spectrophotometer microplate reader. Results were plotted on a logarithmic scale, and the half maximal inhibitory concentration (IC50) was determined from a triplicate of triplicate repeats (n = 9) and reported as an IC 50 ± Standard Deviation (SD).

Another data set has as its system MIA PaCa-2 cells. Kind of data set: Chemosensitivity (MTT cell viability) assay, MIA PaCa-2. In kind it is cell-based, human. Particulars: for IC50: MIA PaCa-2, 96 h, n = 9; for Selectivity index (SI): MIA PaCa-2 compared to ARPE-19, 96 h. How it is done:
as §1
(§2) MCF-7, MIA PaCa-2 and ARPE-19 in high glucose DMEM and MDA-MB-231 in RPMI-1640, and both media were supplemented with 10% FBS, 1 mM sodium pyruvate, 2 mM L-glutamine, and 1% pen-strep. All cells were initially grown in T-25 or T-75 flasks at 37 °C and 5% CO2. Before chemosensitivity studies, cell monolayers were passaged using trypsin-EDTA (0.05%) and diluted to a concentration of 1 x 10^4 cells/mL (or 4 x 10^4 cells mL for 24 h assays). All assays were conducted in 96-well plates, in which 100 µL of the cell suspension was added for 24 h at 37 °C and 5% CO2, and then 100 µL of compound/medium dilutions for a further 96 h (or 24 h). All compound stocks were made using sterile DMSO at 100 mM before dilution, and a maximum of 0.1% DMSO was used in each assay. After incubation, 3-(4,5-dimethylthiazol-2-yl)-2,5-diphenyltetrazolium bromide (20 µL, 5 mg/mL in PBS) was added to each well and incubated for 3 h at 37°C and 5% CO2. All solutions were then aspirated, DMSO (150 µL) added to each well, gently mixed, and the absorbance was measured at 540 nm using a ClarioStar spectrophotometer microplate reader. Results were plotted on a logarithmic scale, and the half maximal inhibitory concentration (IC50) was determined from a triplicate of triplicate repeats (n = 9) and reported as an IC 50 ± Standard Deviation (SD).

Another data set has as its system ARPE-19 cells. Description: Chemosensitivity (MTT cell viability) assay, noncancerous ARPE-19. In kind it is cell-based, human. Particulars: ARPE-19 noncancerous, 96 h, n = 9. The procedure:
The cytotoxicity of the compounds against the cancer cell lines was also compared to the noncancerous retinal epithelial cell line, ARPE-19, to determine the possibility of cancer cell selectivity. […]
as §1, §2

Another data set relates to MDA-MB-231 cells. Description: Chemosensitivity (MTT cell viability) assay, MDA-MB-231. In kind it is cell-based, human. As to conditions: for IC50: n = 9; for Selectivity index (SI): MDA-MB-231 compared to ARPE-19, 96 h. The procedure: as §1, §2
The subject of a further data set is MCF-7 cells. Description: Chemosensitivity (MTT cell viability) assay, MCF-7. In kind it is cell-based, human. As to conditions: for IC50: MCF-7, 96 h, n = 9; for Selectivity index (SI): MCF-7 compared to ARPE-19, 96 h. The procedure:
as §1, §2

A further data set concerns plasmid DNA. Kind of data set: Plasmid DNA interaction, agarose gel electrophoresis. In kind it is biochemical. As to conditions: 200 ng plasmid DNA, 100–400 μM, cell-free. The procedure: The ability of compounds to intercalate, nick, or cleave DNA can be evaluated using gel electrophoresis with plasmid DNA. In this study, in vitro plasmid DNA assays were performed by incubating 200 ng of plasmid DNA with different concentrations (100–400 μM) of 1 or CDDP, which served as a positive control. The DNA fragments were then separated via agarose gel electrophoresis, and potential changes in DNA migration patterns were analyzed.
5 Plasmid DNA (200 ng) was incubated with varying concentrations (100, 200, and 400 μM) of compound 1 or CDDP for 24 h at room temperature. The DNA was then separated via agarose gel electrophoresis, and the intensity of supercoiled and nicked circular DNA bands was quantified and expressed as mean ± SEM (n = 4).
MDA-MB-231 cells at 4000 cells/well were seeded into a black clear -bottom 96-well plate using phenol-red free complete RMPI medium, and incubated for 48 h. […] Fluorescence images were obtained using a Zeiss Observer 7 inverted microscope at excitation at 488 nm and emission at 509 […]
Plasmid DNA (200 ng, pBOS -H2B-GFP, BD Biosciences) was incubated overnight at room temperature with 1 or CDDP at concentrations between 100 and 400 μM in double -distilled H2O (20 μL total volume). […] The experiment was conducted in two biological replicates, and the band intensities were quantified and analyzed using ImageJ software. […]

From publication PMC12406195, “Understanding the Modes of Action of β‑Ketoiminato Iridium(III) Complexes in Cancer Cells” (Inorganic Chemistry, 2025) come the findings set out here.

By IC50 is commonly meant the concentration that inhibits the measured activity by half. A lower IC50 goes with greater potency in that assay.

“[Cp*Ir(C16H13BrNO)(PTA)](PF6) [Compound 3]”: in data set [1], the “Time to full decomposition (no further changes in UV/vis spectra)” value (“Time … (no further changes in UV/vis spectra)” for short) is on record as “over 96 h”. In addition, the IC50 was found to be 11.2 ± 0.1 µM in the data set with MIA PaCa-2 cells; 14.6 ± 0.8 µM in the data set on ARPE-19 cells; 22 ± 1 µM in the data set with MDA-MB-231 cells (MDA-MB-231, 24 h); 4.8 ± 0.5 µM in the data set with MDA-MB-231 cells (MDA-MB-231, 96 h); 32.4 ± 0.3 µM in the data set on MCF-7 cells. Besides, the “Selectivity index (SI)” value was found to be 1.3 in the data set on MIA PaCa-2 cells, 3.0 in the data set with MDA-MB-231 cells and 0.5 in the data set on MCF-7 cells.

As to `[NH2][Pt]([NH2])([Cl])[Cl]` [CDDP, cisplatin, reference compound], the IC50 is 3.9 ± 0.6 µM in the data set with MIA PaCa-2 cells; 6 ± 0.2 µM in the data set with ARPE-19 cells; more than 100 µM with MDA-MB-231 cells (MDA-MB-231, 24 h); 2.2 ± 0.3 µM with MDA-MB-231 cells (MDA-MB-231, 96 h); 6.1 ± 0.9 µM in the data set with MCF-7 cells. Also, the results for the “Selectivity index (SI)” value with MIA PaCa-2 cells, in the data set on MDA-MB-231 cells and in the data set with MCF-7 cells were 1.5, 2.7 and 1.0, respectively. Also, in the data set with plasmid DNA, the “Plasmid DNA migration” value is reported as “faster DNA migration”.

“[Cp*Ir(C18H18NO2)(PTA)](PF6) [Compound 4]”: the “Time … (no further changes in UV/vis spectra)” value in data set [1] is 72 h. Moreover, the IC50 came to 10 ± 1 µM in the data set on MIA PaCa-2 cells; 10.7 ± 0.4 µM in the data set with ARPE-19 cells; 36 ± 1 µM in the data set with MDA-MB-231 cells (MDA-MB-231, 24 h); 4.1 ± 0.5 µM in the data set on MDA-MB-231 cells (MDA-MB-231, 96 h); 34.3 ± 0.6 µM in the data set on MCF-7 cells. Moreover, the “Selectivity index (SI)” value was determined as 1.1 in the data set on MIA PaCa-2 cells, 2.6 in the data set on MDA-MB-231 cells and 0.3 with MCF-7 cells.

With `N.N.O=C([O-])C1(C(=O)[O-])CCC1.[Pt+2]` [CARB, carboplatin, reference compound], the IC50 was 40 ± 4 µM in the data set on MIA PaCa-2 cells; more than 100 µM in the data set with ARPE-19 cells; more than 100 µM in the data set on MDA-MB-231 cells (MDA-MB-231, 24 h); 16 ± 1 µM with MDA-MB-231 cells (MDA-MB-231, 96 h); 40 ± 1 µM in the data set on MCF-7 cells. Further, the “Selectivity index (SI)” value in the data set on MIA PaCa-2 cells is recorded as more than 2.5; in the data set on MDA-MB-231 cells it was more than 6.3; in the data set on MCF-7 cells, more than 2.5.

Take “[Cp*Ir(C16H12Cl2NO)(PTA)](PF6) [Compound 2]”: the “Time … (no further changes in UV/vis spectra)” value in data set [1] stood at 64 h. Further, the IC50 in the data set on MIA PaCa-2 cells worked out at 14.9 ± 0.7 µM; in the data set with ARPE-19 cells, 16 ± 1 µM; in the data set on MDA-MB-231 cells (MDA-MB-231, 24 h), 21 ± 1 µM; in the data set on MDA-MB-231 cells (MDA-MB-231, 96 h), 5.4 ± 0.3 µM; in the data set on MCF-7 cells, 45.1 ± 0.8 µM. Besides, the “Selectivity index (SI)” value in the data set with MIA PaCa-2 cells came to 1.1; in the data set with MDA-MB-231 cells it was 3.0; in the data set on MCF-7 cells, 0.4.
